According to patent publication US20230248731A1, “COMPOSITION AND MEDICAMENT OF PALBOCICLIB ISETHIONATE” (NANJING GRITPHARMA CO., LTD., priority 2020, published 2023):

Legend:
[1] = background statement; cited from earlier work
[2] = Pharmacokinetics of palbociclib isethionate after single oral administration in 125 mg (Pfizer study 1036); assay type: in vivo, human; settings: single oral 125 mg
Experimental: Existing clinical tests have also shown that the palbociclib isethionate has different bioavailability values before or after a meal. Pharmacokinetics of the palbociclib isethionate in healthy subjects after single administration were evaluated by Pfizer Pharmaceutical, an original research company. Different effects are achieved when the medicine is taken before or after a meal. Compared with administration before a meal, administration after a meal has the advantages that the Cmax value is increased by 7%, and the AUCinf value is increased by about 9%. The food prolongs the retention time of the medicine in the gastric juice, so that the bioavailability is improved. The basic reason is that as the pH environment in the stomach and intestines is different, the palbociclib isethionate has inconsistent dissolution and release conditions, resulting in different bioavailability values. Therefore, when the dissolution of the palbociclib isethionate can be improved under neutral and weakly alkaline conditions, great benefits will be brought to application of the palbociclib isethionate to the treatment of related diseases in the human body.

[3] = Solubility of palbociclib isethionate at different pH values; assay type: physicochemical
Source text: First, the applicant has studied the solubility of palbociclib isethionate in water, a hydrochloric acid solution with a pH of 1.0, a phosphate buffer with a pH of 6.8 and an acetate buffer with a pH of 4.5 (as shown in Table 3). […] However, the palbociclib isethionate enters the intestinal tract rapidly on an empty stomach, and the pH environment becomes neutral and weakly alkaline. As the solubility of the palbociclib isethionate is extremely low at a pH of 6.8, absorption of the palbociclib isethionate will be affected by the solubility, which is extremely unfavorable to the absorption and utilization of the palbociclib isethionate.

Row | Increase of AUCinf, administration after a meal compared with before a meal [2] | Increase of Cmax, administration after a meal compared with before a meal [2] | Solubility ([3]; acetate buffer pH 4.5) | Solubility ([3]; hydrochloric acid solution pH 1.0) | Solubility (in words) ([3]; pH 6.8) | Solubility ([3]; phosphate buffer pH 6.8) | Solubility ([3]; water) | Structure (SMILES) | Solubility in water (in words) [1]
1 | – | – | – | – | – | – | – | CC(=O)c1c(C)c2cnc(Nc3ccc(N4CCNCC4)cn3)nc2n(C2CCCC2)c1=O [palbociclib in a free alkali form, palbociclib] | poor solubility in water
2 | about 9% | 7% | 84.7 mg/mL | 90.7 mg/mL | extremely low | 0.04 mg/mL | 84.8 mg/mL | CC(=O)c1c(C)c2cnc(Nc3ccc(N4CCNCC4)cn3)nc2n(C2CCCC2)c1=O.O=S(=O)(O)CCO [palbociclib isethionate] | –
